Earlier results in patent publication US20050084461A1, “Tooth enamel rejuvenating toothpaste” (priority 2003, published 2005).

Conditions: pH of about 7.0, temperature of about 25° C.

O.O.O=P([O-])([O-])O.[Ca+2] [dicalcium phosphate dihydrate]
calcium cations released in aqueous solution: about 40 ppm
